Measurements published in ChEMBL document CHEMBL4334472, “Multi-target-directed-ligands acting as enzyme inhibitors and receptor ligands” (Eur J Med Chem, 2019).

What was measured:
Cholinesterase [1] = target: T1, Cholinesterase (Homo sapiens, UniProt P06276); experiment: Inhibition of recombinant human BChE using butyrylthiocholine iodide as substrate preincubated for 5 mins followed by substrate addition measured after 5 mins
[2] = target: 5-hydroxytryptamine receptor 6 (Homo sapiens, UniProt P50406); experiment: Displacement of [3H]-LSD from recombinant human 5HT6 receptor expressed in CHOK1 cells measured after 60 mins by microbeta scintillation counting method; format: cell-based
Sequence of 5-hydroxytryptamine receptor 6 (P50406 whole entry): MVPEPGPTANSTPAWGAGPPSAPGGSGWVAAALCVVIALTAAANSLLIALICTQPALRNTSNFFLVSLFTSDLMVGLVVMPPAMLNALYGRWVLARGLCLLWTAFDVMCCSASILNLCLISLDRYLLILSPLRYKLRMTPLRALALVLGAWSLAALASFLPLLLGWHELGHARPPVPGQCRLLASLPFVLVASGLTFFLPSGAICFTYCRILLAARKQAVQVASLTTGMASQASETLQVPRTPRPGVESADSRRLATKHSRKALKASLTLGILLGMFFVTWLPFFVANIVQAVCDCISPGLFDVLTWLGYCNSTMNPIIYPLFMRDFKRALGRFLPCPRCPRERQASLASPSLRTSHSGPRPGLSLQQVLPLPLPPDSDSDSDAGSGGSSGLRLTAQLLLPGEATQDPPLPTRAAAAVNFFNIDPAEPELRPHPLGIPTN

[3] = target: Amine oxidase [flavin-containing] B (Homo sapiens, UniProt P27338); experiment: Inhibition of human MAOB
Sequence of Amine oxidase [flavin-containing] B (P27338 whole entry): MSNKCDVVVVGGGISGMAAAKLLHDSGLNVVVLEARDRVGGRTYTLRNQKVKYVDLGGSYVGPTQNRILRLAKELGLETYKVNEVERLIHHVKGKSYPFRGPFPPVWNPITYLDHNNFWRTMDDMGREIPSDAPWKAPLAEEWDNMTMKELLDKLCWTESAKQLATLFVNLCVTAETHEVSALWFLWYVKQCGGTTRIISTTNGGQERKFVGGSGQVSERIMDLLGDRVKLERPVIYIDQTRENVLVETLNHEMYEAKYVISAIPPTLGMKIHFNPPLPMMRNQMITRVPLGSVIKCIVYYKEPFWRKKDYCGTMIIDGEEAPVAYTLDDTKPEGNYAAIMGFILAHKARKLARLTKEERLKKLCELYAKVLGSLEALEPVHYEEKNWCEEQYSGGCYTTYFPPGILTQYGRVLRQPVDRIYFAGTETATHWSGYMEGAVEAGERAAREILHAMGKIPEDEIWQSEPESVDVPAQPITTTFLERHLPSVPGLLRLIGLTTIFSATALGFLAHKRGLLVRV

[4] = target: Sodium-dependent serotonin transporter (Homo sapiens, UniProt P31645); experiment: Inhibition of 5HTT (unknown origin)
Butyrylcholinesterase = Butyrylcholinesterase (Rattus norvegicus, UniProt Q9JKC1); experiment: Inhibition of rat BChE
[5] = target: 5-hydroxytryptamine receptor 1A (Mus musculus, UniProt Q64264); experiment: Agonist activity at mouse 5-HT1A expressed in HEK293 cells after 2 to 5 mins; format: cell-based
Acetylcholinesterase [6] = target: Acetylcholinesterase (Rattus norvegicus, UniProt P37136); experiment: Inhibition of rat AChE
Acetylcholinesterase [7] = target: T2, Acetylcholinesterase (Homo sapiens, UniProt P22303); experiment: Inhibition of recombinant human AChE using acetylthiocholine iodide as substrate preincubated for 5 mins followed by substrate addition measured after 5 mins
T2 sequence (P22303 whole entry): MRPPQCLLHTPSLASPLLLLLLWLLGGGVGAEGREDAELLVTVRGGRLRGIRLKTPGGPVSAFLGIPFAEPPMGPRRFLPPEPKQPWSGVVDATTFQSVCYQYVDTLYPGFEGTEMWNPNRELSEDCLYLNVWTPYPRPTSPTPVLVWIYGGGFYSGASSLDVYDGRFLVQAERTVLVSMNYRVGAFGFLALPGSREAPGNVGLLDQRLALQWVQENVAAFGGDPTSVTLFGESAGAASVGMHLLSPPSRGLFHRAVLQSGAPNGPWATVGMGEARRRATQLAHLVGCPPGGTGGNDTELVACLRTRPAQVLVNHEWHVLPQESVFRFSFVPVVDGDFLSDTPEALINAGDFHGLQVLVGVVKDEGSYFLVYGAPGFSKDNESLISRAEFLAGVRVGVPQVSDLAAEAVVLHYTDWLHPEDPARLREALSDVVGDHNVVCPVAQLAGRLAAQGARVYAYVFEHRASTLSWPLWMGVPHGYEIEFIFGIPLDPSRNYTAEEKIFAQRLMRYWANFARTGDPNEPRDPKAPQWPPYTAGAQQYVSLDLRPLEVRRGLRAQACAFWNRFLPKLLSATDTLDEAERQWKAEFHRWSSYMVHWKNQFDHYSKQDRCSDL

Cholinesterase [8] = target: Cholinesterase (Equus caballus, UniProt P81908); experiment: Inhibition of equine BChE
Histamine H3 receptor = Histamine H3 receptor (Homo sapiens, UniProt Q9Y5N1); experiment: Inhibition of human histamine H3 receptor
Acetylcholinesterase [9] = target: T2, Acetylcholinesterase; experiment: Inhibition of human AChE
[10] = target: Thromboxane A2 receptor (Homo sapiens) (UniProt P21731); experiment: Antagonist activity at TP receptor in human washed platelet assessed as U46619 induced platelet aggregation after 6 mins; parameters: scale not given: the % may be the effect or the level left
Sequence of Thromboxane A2 receptor (Homo sapiens) (P21731 whole entry): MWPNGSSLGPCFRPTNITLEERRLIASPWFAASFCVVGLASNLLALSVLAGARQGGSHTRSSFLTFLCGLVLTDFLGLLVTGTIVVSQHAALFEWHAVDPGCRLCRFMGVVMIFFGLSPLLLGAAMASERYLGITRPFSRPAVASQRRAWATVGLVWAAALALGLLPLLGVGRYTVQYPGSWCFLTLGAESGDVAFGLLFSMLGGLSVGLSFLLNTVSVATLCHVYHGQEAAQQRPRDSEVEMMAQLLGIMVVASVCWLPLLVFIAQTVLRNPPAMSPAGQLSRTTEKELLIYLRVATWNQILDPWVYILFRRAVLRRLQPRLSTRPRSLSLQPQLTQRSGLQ

[11] = target: Prostaglandin G/H synthase 1 (Homo sapiens, UniProt P23219); experiment: Inhibition of COX1 in human platelets after 30 mins by mass spectrometry analysis
Sequence of Prostaglandin G/H synthase 1 (Homo sapiens, UniProt P23219) (P23219 whole entry): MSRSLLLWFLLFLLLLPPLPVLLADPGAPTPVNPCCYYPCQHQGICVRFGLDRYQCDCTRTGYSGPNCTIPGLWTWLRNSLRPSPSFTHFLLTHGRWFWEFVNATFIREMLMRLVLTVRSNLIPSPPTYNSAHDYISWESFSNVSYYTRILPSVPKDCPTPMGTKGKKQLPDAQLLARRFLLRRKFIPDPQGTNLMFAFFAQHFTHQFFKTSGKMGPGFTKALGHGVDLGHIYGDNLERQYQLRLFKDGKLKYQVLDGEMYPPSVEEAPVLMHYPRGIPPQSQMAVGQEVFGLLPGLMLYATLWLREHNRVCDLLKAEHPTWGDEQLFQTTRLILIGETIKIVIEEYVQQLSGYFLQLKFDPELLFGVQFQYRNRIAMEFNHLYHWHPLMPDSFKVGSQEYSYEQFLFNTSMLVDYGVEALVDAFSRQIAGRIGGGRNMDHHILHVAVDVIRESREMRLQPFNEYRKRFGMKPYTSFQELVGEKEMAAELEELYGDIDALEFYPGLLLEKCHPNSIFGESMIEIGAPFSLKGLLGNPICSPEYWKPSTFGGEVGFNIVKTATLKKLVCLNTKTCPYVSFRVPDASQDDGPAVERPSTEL

[12] = target: Prostaglandin G/H synthase 2 (Homo sapiens, UniProt P35354); experiment: Inhibition of COX2 in lympho-monocytes (unknown origin) preincubated for 30 mins followed by LPS challenged measured after 24 hrs by EIA; format: cell-based
Sequence of Prostaglandin G/H synthase 2 (Homo sapiens, UniProt P35354) (P35354 whole entry): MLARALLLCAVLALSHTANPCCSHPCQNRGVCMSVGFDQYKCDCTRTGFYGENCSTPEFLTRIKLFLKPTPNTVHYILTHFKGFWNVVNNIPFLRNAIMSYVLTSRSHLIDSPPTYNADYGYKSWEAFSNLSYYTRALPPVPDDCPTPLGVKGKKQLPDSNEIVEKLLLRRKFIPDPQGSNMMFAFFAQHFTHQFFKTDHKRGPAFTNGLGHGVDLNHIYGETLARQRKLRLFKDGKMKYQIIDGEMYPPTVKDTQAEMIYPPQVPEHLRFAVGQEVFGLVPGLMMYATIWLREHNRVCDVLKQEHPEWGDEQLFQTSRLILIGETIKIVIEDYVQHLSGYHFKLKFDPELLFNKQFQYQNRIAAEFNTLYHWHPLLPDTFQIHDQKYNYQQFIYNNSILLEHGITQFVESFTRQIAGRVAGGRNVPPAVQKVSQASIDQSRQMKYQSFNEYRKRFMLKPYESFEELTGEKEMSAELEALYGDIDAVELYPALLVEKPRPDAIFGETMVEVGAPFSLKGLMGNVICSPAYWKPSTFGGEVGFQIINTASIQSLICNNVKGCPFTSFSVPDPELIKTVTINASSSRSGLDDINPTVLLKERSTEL

Cholinesterase [13] = target: T1, Cholinesterase; experiment: Inhibition of human BChE
[14] = target: Neuronal acetylcholine receptor; alpha4/beta2 (Homo sapiens, UniProt P17787+P43681); experiment: Inhibition of alpha4beta2 nAChR (unknown origin); format: protein-complex assay
[15] = target: Amyloid-beta precursor protein (Homo sapiens) (UniProt P05067); experiment: Inhibition of amyloid beta (1 to 42 residues) (unknown origin) self aggregation at 10 uM ThT-based fluorescence assay relative to control
Sequence of Amyloid-beta precursor protein (Homo sapiens) (P05067 whole entry, the tested form may be a part): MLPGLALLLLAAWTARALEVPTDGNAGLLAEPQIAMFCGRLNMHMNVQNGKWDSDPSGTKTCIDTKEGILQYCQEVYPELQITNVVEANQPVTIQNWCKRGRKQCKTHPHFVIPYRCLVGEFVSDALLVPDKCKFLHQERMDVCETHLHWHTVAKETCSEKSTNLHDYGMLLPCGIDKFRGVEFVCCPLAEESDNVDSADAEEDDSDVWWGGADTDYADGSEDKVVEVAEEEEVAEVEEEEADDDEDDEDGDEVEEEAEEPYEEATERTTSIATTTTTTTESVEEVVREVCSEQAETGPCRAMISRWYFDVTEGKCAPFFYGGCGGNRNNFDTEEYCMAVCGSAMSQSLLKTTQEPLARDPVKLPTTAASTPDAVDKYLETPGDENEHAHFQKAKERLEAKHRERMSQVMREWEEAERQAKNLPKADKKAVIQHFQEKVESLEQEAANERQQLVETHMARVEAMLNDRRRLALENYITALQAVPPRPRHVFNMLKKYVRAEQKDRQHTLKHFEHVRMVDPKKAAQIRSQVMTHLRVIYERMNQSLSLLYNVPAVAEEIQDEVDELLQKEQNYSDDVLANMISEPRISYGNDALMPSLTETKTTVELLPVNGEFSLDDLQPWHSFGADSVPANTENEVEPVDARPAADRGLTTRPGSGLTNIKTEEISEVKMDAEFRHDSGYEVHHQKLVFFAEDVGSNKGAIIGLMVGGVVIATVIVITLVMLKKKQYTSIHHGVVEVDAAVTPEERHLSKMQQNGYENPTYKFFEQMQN

[16] = target: Neuronal acetylcholine receptor subunit alpha-7 (Homo sapiens, UniProt P36544); experiment: Inhibition of alpha7 nAChR (unknown origin)
[17] = target: Amine oxidase [flavin-containing] A (Homo sapiens, UniProt P21397); experiment: Inhibition of human MAOA
[18] = target: Muscarinic acetylcholine receptor M1 (Homo sapiens, UniProt P11229); experiment: Inhibition of M1R (unknown origin)
[19] = Inhibition of nAChR (unknown origin) after 1 to 2 mins; parameters: species or system Homo sapiens
Beta-secretase 1 = Beta-secretase 1 (Homo sapiens, UniProt P56817); experiment: Inhibition of BACE1 (unknown origin) using EVNLDAEF as substrate by fluorescence assay
Sequence of Beta-secretase 1 (P56817 whole entry): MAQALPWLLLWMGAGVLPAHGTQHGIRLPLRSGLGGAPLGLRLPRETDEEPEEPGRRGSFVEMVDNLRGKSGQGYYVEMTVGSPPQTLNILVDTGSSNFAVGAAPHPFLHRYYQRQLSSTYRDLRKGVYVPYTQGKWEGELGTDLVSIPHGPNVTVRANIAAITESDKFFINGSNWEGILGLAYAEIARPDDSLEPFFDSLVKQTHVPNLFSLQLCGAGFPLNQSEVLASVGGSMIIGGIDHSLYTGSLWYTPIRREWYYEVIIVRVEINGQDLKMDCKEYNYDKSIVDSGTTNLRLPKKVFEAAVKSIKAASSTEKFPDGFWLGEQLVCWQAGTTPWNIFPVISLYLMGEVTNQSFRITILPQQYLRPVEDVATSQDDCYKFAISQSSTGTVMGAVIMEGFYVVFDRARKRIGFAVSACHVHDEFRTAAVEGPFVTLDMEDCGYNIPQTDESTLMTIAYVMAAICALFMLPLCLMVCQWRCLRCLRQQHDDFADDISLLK

[20] = target: Prostaglandin G/H synthase 2 (Ovis aries, UniProt P79208); experiment: Inhibition of ovine COX2
[21] = target: Transient receptor potential cation channel subfamily V member 1 (Homo sapiens, UniProt Q8NER1); experiment: Inhibition of TRPV1 (unknown origin)
[22] = target: Prostaglandin G/H synthase 1 (Ovis aries, UniProt P05979); experiment: Inhibition of ovine COX1

T1 sequence (P06276 whole entry): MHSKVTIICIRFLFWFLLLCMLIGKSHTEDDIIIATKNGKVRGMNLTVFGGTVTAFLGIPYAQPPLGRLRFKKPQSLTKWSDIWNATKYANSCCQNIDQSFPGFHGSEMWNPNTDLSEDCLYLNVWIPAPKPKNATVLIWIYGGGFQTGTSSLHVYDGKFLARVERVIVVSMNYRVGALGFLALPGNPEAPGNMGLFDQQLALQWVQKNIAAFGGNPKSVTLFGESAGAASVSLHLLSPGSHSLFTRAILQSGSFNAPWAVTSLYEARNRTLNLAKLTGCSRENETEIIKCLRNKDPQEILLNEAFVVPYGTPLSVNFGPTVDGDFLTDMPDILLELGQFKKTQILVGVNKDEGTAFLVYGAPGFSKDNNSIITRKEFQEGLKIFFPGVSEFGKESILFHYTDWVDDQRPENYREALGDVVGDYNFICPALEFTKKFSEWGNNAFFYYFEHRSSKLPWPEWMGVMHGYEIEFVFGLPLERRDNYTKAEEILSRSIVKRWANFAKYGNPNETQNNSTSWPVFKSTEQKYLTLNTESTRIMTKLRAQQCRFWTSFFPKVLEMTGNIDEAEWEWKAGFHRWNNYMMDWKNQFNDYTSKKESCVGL

Q: For CN(CCCN1CCN(c2cccc3c2ccn3Cc2ccccc2)CC1)Cc1ccccc1, which IC50 (Cholinesterase [1]) is on record?
A: 196 nM

Q: And the Ki [2]?
A: 240 nM

Q: With O=C(c1ccc(OCCCc2cnc[nH]2)cc1)C1CC1 [CIPROXIFAN] as the molecule, how does the IC50 [3] read?
A: 1900 nM

Q: With N#Cc1ccc2[nH]cc(CCCCN3CCN(c4c5c(nc6ccccc46)CCCC5)CC3)c2c1 as the molecule, how does the IC50 [4] read?
A: 15.8 nM

Q: And the IC50 (Butyrylcholinesterase)?
A: 3300 nM

Q: What about the EC50 [5] of the same molecule?
A: 107 nM

Q: What about the IC50 (Acetylcholinesterase [6]) of the same molecule?
A: 76 nM

Q: Which IC50 (Acetylcholinesterase [7]) does the source give for Cc1c(OCc2ccccc2)cccc1N1CCN(CCCCCCNc2c3c(nc4c2CCCC4)CCCC3)CC1 here?
A: 14 nM

Q: And the IC50 (Cholinesterase [1])?
A: 22 nM

Q: What about the Ki [2] of the same molecule?
A: 18 nM

Q: What does the source list for O=c1c2cc(OCCCN3CCCCC3)ccc2nc2n1CCC2?
A: IC50 (Cholinesterase [8]): 248000 nM; Ki (Histamine H3 receptor): 2500 nM; IC50 (Acetylcholinesterase [9]): 5400 nM

Q: For Cc1ccc(Nc2c(F)cccc2Cl)c(CNS(=O)(=O)C(F)(F)F)c1, which Activity [10] is on record?
A: 5.9%

Q: And the IC50 [11]?
A: 16100 nM

Q: And the IC50 [12]?
A: 400 nM

Q: With COc1ccccc1CN1CCN(CCCCCOc2cccc3[nH]c4ccccc4c23)CC1 as the molecule, how does the IC50 (Cholinesterase [13]) read?
A: 600 nM

Q: What about the Ki [14] of the same molecule?
A: 35300 nM

Q: And the IC50 (Acetylcholinesterase [9])?
A: 2400 nM

Q: What about the inhibition [15] of the same molecule?
A: 34%

Q: And the Ki [16]?
A: 66800 nM

Q: With C#CCN(C)Cc1cc2cc(OCCCC3CCN(Cc4ccccc4)CC3)ccc2n1C as the molecule, how does the IC50 [17] read?
A: 0.3 nM

Q: With COc1cc2c(cc1OC)-c1cc(OCCN3CCCCC3)nc(=O)n1CC2 as the molecule, how does the IC50 (Acetylcholinesterase [9]) read?
A: 5000 nM

Q: For COc1ccc2nc3c(c(NCCCCCCCCNC(=S)NC45CC6CC(CC(C6)C4)C5)c2c1)CCCC3, which IC50 (Cholinesterase [13]) is on record?
A: 300 nM

Q: What about the IC50 [18] of the same molecule?
A: 2200 nM

Q: What about the IC50 [19] of the same molecule?
A: 1100 nM

Q: And the IC50 (Acetylcholinesterase [9])?
A: 1600 nM

Q: What about the IC50 (Beta-secretase 1) of the same molecule?
A: 18400 nM

Q: What about the inhibition [15] of the same molecule?
A: 77%

Q: Which results are given for Cc1ccc(Nc2c(F)cccc2Cl)c(CNc2nnn[nH]2)c1?
A: Activity [10]: 5.6%; IC50 [11]: 13200 nM; IC50 [12]: 14 nM

Q: With CC[C@@H](/C=C/[C@@H](C)[C@H]1CC[C@H]2C3=CC[C@H]4C[C@@H](O)CC[C@]4(C)[C@H]3CC[C@]12C)C(C)C as the molecule, how does the IC50 [20] read?
A: 7800 nM

Q: And the IC50 [21]?
A: 1400 nM

Q: And the IC50 [22]?
A: 16200 nM
